Measured values as given in US5254566A, “Decahydroquinoline compounds” (Roussel Uclaf, priority 1991, dated 1993).
Where a name gives a salt, the structure may show the parent alone.

Experiments:
[1] = test system: Plasmodium falciparum FZ strain resistant to chloroquine; experiment: Anti-paludal activity in vitro: inhibition of proliferation in continuous culture, FZ strain; format: cell-based; conditions: R3 type resistance, parasitemia relative to controls, incubation 48 hours, RPS 10 medium, 5% CO2, read-out: ED50 (FZ strain resistant to chloroquine)
Description: (§1) 2) Test for determining the anti-paludal activity in vitro
(§2) The culturing of Plasmodium falciparum "in vitro" was carried out in cupulas on polystyrene plates used for tissue culture. It was carried out at 37° C. in a CO2 oven by the technique of TRAGER et al (1976-1978) on a modified RPMI 1640 medium (AZOULAY et al 1983) buffered with a mixture of HEPES buffer (40 m.moles/l), glucose (4 g/l) and 10 percent human serum. The anti-malarial activity "in vitro" of the different products tested was studied on two different strains of Plasmodium falciparum, namely an FCC2 strain sensitive to chloroquine and an FZ strain resistant to chloroquine (R3 type resistance). […]
(§3) 0.7 ml of the globular suspension was deposited in each cupula and each concentration of chosen product was tested on 3 cupulas. […] After an incubation time of 48 hours without renewing the medium in a steam chest with a CO2 content of 5%, the parasitemia content of each cupula was evaluated.
(§4) To do this, the canisters were removed from the steam chest and were left for 10 minutes at rest under a hood with laminar flux. […] On these crush preparations, fixed and colored, the different forms of the parasite were counted for 2000 to 3000 red blood corpuscles per plate. The results were expressed as the percentage of proliferation relative to the controls. […]

[2] = test system: Plasmodium falciparum FCC2 strain sensitive to chloroquine; experiment: Anti-paludal activity in vitro: inhibition of proliferation in continuous culture, FCC2 strain; format: cell-based; conditions: parasitemia relative to controls, incubation 48 hours, RPS 10 medium, 5% CO2, read-out: ED50 (FCC2 strain sensitive to chloroquine)
Description: as §1, §2, §3, §4

Clc1ccc2c(N3CCC[C@@H]4CCC[C@@H](N5CCCC5)[C@@H]43)ccnc2c1 (relative stereo) [Example 2, (4a α, 8α, 8aα) (±) 1-(7-chloro-4-quinolinyl)-decahydro-8-(1-pyrrolidinyl)-quinoline dihydrochloride]
IC50 [1]: 0.34 µg/mL
IC50 [2]: 0.35 µg/mL
